How the values were obtained:
Assay in all cases: Gel-based competitive ABPP in vitro, mouse brain membrane proteome
Assay type in all cases: biochemical
[1] = target: T1, ABHD6 (Mus musculus, UniProt Q8R2Y0)
T1 construct: from tissue; host or cells: mouse brain, membrane fraction
T1 sequence (Q8R2Y0 1-336): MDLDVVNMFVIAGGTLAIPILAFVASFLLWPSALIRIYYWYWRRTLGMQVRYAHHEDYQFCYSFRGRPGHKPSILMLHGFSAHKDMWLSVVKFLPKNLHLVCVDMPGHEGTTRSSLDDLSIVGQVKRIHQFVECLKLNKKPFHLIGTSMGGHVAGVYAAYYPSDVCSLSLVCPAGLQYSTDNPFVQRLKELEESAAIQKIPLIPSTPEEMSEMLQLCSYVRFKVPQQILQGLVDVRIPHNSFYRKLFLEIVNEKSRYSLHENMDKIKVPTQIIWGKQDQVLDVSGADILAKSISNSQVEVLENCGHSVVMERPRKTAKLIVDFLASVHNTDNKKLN
Procedure: (§1) Assay Overview: The purpose of this assay was to determine whether test compounds can inhibit LYPLA1 and LYPLA2 in a complex proteomic lysate and to assess anti-target inhibition using a competitive activity-based proteomic profiling (ABPP) assay. In this assay, a complex proteome endogenously expressing LYPLA1/2 was incubated with test compound followed by reaction with a rhodamine-conjugated fluorophosphonate (FP-Rh) serine-hydrolase specific activity-based probe. The reaction products were separated by SDS-PAGE and visualized in-gel using a flatbed fluorescence scanner. The percentage activity remaining was determined by measuring the integrated optical density of the bands. […] Percent inhibition was calculated relative to a DMSO (no compound) control.
(§2) Protocol Summary: Mouse brain membrane proteome (50 μL reaction volume, 1 mg/mL in DPBS) was treated with 0.1-100 μM test compound (1 μL of a 50× stock in DMSO) for 30 minutes at 37° C. FP-Rh (1 μL of 50× stock in DMSO, Thermo #88318) was added to a final concentration of 2 μM. The reactions were incubated for 30 minutes at 25° C., quenched with 16 μL 4×SDS-PAGE loading buffer (reducing), separated by SDS-PAGE and visualized by in-gel fluorescent scanning. The percentage activity remaining was determined by measuring the integrated optical density of the bands relative to a DMSO-only (no compound) control. Assay Cutoff: Compounds with ≥50% inhibition of targets at 1 μM test compound concentration were considered active.
(§3) Assay Overview: The purpose of this assay was to determine IC50 values of powder samples of test compounds for enzyme of interest activity, and anti-targets in a complex proteomic lysate using a gel-based competitive ABPP assay. In this assay, a complex proteome was incubated with test compound followed by reaction with FP-Rh and SDS-PAGE analysis as described above.
(§4) Protocol Summary: Soluble HeLa cell proteome (50 μL reaction volume, 1 mg/mL in DPBS) or mouse brain membrane proteome (50 μL reaction volume, 1 mg/mL in DPBS) was treated with varying concentrations of test compound (1 μL of a 50× stock in DMSO) for 30 minutes at 37° C. FP-Rh (1 μL of 50× stock in DMSO) was added to a final concentration of 2 μM. The reaction was incubated for 30 minutes at 25° C., quenched with 16 μL 4×SDS-PAGE loading buffer (reducing), separated by SDS-PAGE and visualized by in-gel fluorescent scanning. The percentage activity remaining was determined by measuring the integrated optical density of the enzymes of interest, and anti-target bands relative to a DMSO-only (no compound) control. IC50 values were determined from dose-response curves from three replicates at each inhibitor concentration: 1, 10, 100, 1000, 10000 nM and 0.01, 0.1, 1, 10, 100, 1000, 10000, 50000, and 100000 nM.

[2] = target: T2, FAAH (Mus musculus, UniProt O08914); settings: for FAAH in vitro enzyme activity, % @ 10 μM: mouse brain (mem) proteome
T2 construct: from tissue; host or cells: mouse brain, membrane fraction
T2 sequence (O08914 1-579): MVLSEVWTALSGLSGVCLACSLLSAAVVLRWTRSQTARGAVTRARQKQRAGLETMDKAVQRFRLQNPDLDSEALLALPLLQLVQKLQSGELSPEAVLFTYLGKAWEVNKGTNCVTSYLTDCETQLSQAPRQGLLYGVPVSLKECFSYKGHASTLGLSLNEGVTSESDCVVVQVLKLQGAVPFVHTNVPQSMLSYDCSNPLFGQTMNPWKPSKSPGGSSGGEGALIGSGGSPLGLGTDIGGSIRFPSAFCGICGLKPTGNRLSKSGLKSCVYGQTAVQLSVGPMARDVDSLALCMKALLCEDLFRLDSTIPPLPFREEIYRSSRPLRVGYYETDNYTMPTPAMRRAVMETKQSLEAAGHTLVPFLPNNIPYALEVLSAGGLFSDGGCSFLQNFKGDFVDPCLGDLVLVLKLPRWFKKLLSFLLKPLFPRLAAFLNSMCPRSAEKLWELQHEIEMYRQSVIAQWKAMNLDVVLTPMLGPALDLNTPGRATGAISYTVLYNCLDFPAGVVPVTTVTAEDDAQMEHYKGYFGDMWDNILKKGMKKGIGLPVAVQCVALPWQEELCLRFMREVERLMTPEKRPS
Procedure: as §1, §2, §3, §4

[3] = target: T3, LYPLA2 (Mus musculus, UniProt Q9WTL7)
T3 construct: a complex proteome endogenously expressing LYPLA1/2 was incubated with test compound; from tissue; host or cells: mouse brain, membrane fraction
Procedure, shortened: (§5)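 Mouse brain membrane proteome (1 mg/mL in DPBS) was treated with compound (0.1-100 μM) for 30 min at 37 °C, then labeled with FP-Rh (2 μM final, 30 min, 25 °C). Bands were resolved by SDS-PAGE and scanned in-gel, with inhibition taken from band optical density versus DMSO. Targets counted as active or anti-targets at ≥50% inhibition.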

[4] = target: T4, LYPLA1 (Mus musculus, UniProt P97823)
T4 construct: a complex proteome endogenously expressing LYPLA1/2 was incubated with test compound; from tissue; host or cells: mouse brain, membrane fraction
Procedure, shortened: as §5

[5] = 20 μM, mouse brain (mem) proteome

T3 sequence (Q9WTL7 whole entry): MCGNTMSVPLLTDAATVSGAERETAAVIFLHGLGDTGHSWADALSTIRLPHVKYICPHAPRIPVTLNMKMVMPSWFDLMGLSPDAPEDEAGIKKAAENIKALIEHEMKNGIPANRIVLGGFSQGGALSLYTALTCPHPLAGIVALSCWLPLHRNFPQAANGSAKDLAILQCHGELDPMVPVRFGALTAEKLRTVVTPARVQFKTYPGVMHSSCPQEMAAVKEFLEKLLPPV
T4 sequence (P97823 whole entry): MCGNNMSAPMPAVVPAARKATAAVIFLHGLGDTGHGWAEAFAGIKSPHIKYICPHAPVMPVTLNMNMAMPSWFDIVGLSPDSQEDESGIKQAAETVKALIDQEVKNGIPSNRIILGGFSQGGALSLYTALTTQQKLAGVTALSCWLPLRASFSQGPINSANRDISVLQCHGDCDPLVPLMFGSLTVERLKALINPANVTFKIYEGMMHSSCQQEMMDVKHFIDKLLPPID

Row | SMILES | ABHD6 in vitro enzyme activity, % @ 1 μM ([1]; mouse brain (mem) proteome) | FAAH in vitro enzyme activity, % @ 10 μM [2] | LYPLA2 in vitro enzyme activity, % @ 10 μM ([3]; mouse brain (mem) proteome) | LYPLA1 in vitro enzyme activity, % @ 10 μM ([4]; mouse brain (mem) proteome) | further results
1 | O=C(ON1C(=O)C2CN(C(=O)N3CCOCC3)CCN2C1=O)N1CCC(CCc2ccc(Cl)cc2)CC1 (centres unmarked) [Compound 1, 7-(morpholine-4-carbonyl)-1,3-dioxohexahydroimidazo[1,5-a]pyrazin-2(3H)-yl 4-(4-chloro-phenethyl)piperidine-1-carboxylate] |  |  |  |  | IC50 ([1]; anti-target, mouse brain membrane proteome, read-out: ABHD6 IC50): 0.00315 µM; selectivity for LYPLA1/2 over FAAH ([2]; LYPLA versus FAAH): ~13 fold; IC50 ([2]; anti-target, mouse brain membrane proteome): 3.15 µM; inhibition at 1 µM ([3]; 1 μM compound, 30 min, one replicate, read-out: LYPLA2 % INH 1 μM): 100%; inhibition at 10 µM ([3]; 10 μM compound, 30 min, one replicate, read-out: LYPLA2 % INH 10 μM): 100%; inhibition at 100 µM ([3]; 100 μM compound, 30 min, one replicate, read-out: LYPLA2 % INH 100 μM): 100%; inhibition at 1 µM ([4]; 1 μM compound, 30 min, one replicate, read-out: LYPLA1 % INH 1 μM): 100%; inhibition at 10 µM ([4]; 10 μM compound, 30 min, one replicate, read-out: LYPLA1 % INH 10 μM): 100%; inhibition at 100 µM ([4]; 100 μM compound, 30 min, one replicate, read-out: LYPLA1 % INH 100 μM): 100%
2 | O=C(ON1C(=O)C2CN(Cc3ccc(Oc4ccccc4)cc3)CCN2C1=O)N1CCC(c2ccccc2)CC1 (centres unmarked) [Compound 38, 1,3-dioxo-7-(4-phenoxybenzyl)hexahydroimidazo[1,5-a]pyrazin-2(3H)-yl 4-phenylpiperidine-1-carboxylate] |  |  |  |  | ABHD6 in vitro enzyme activity, % @ 20 μM [1, 5]: 100% @; LYPLA2 in vitro enzyme activity, % @ 20 μM [3, 5]: 0% @; LYPLA1 in vitro enzyme activity, % @ 20 μM [4, 5]: 0% @
3 | O=C(ON1C(=O)[C@@H]2CN(Cc3ccc(Br)cc3)CCN2C1=O)N1CCC(CCc2ccc(Cl)cc2)CC1 [Compound 40, (S)-7-(4-bromobenzyl)-1,3-dioxohexahydroimidazo[1,5-a]pyrazin-2(3H)-yl4-(4-chlorophenethyl)piperidine-1-carboxylate] | 100% @ | 50% @ | 50% @ | 50% @ | 
4 | O=C(ON1C(=O)[C@@H]2CN(C(=O)N3CCOCC3)CCN2C1=O)N1CCN(CCc2ccc(Cl)cc2)CC1 [Compound 41, (S)-7-(morpholine-4-carbonyl)-1,3-dioxo-hexahydroimidazo[1,5-a]pyrazin-2(3H)-yl 4-(4-chlorophenethyl)piperazine-1-carboxylate] | 100% @ | 100% @ | 100% @ | 100% @ | 
5 | COc1ccc(N2CCN(C(=O)ON3C(=O)[C@@H]4CN(CC5CCN(Cc6ccccc6)CC5)CCN4C3=O)CC2)cc1 [Compound 42, (S)-7-((1-benzylpiperidin-4-yl)methyl)-1,3-dioxo-hexahydroimidazo[1,5-a]pyrazin-2(3H)-yl 4-(4-methoxyphenyl)piperazine-1-carboxylate] | 100% @ | 0% @ | 100% @ | 50% @ | 
6 | COc1ccc(N2CCN(C(=O)ON3C(=O)[C@H]4CN(CC5CCN(Cc6ccccc6)CC5)CCN4C3=O)CC2)cc1 [Compound 43, (R)-7-((1-benzylpiperidin-4-yl)methyl)-1,3-dioxo-hexahydroimidazo[1,5-a]pyrazin-2(3H)-yl 4-(4-methoxyphenyl)piperazine-1-carboxylate] | 100% @ | 0% @ | 0% @ | 0% @ | 
7 | C#CCOc1ccc(N2CCN(C(=O)ON3C(=O)[C@@H]4CN(Cc5ccc(Oc6ccccc6)cc5)CCN4C3=O)CC2)cc1 [Compound 44, (S)-1,3-dioxo-7-(4-phenoxybenzyl)-hexahydroimidazo[1,5-a]pyrazin-2(3H)-yl 4-(4-(prop-2-ynyloxy)phenyl)piperazine-1-carboxylate] | 100% @ | 0% @ | 0% @ | 0% @ | 
8 | C#CCOc1ccc(N2CCN(C(=O)ON3C(=O)[C@H]4CN(Cc5ccc(Oc6ccccc6)cc5)CCN4C3=O)CC2)cc1 [Compound 45, (R)-1,3-dioxo-7-(4-phenoxybenzyl)-hexahydroimidazo[1,5-a]pyrazin-2(3H)-yl 4-(4-(prop-2-ynyloxy)phenyl)piperazine-1-carboxylate] | 100% @ | 0% @ | 0% @ | 0% @ | 
9 | C#CCOc1ccc(N2CCN(C(=O)ON3C(=O)[C@@H]4CN(CC5CCN(Cc6ccccc6)CC5)CCN4C3=O)CC2)cc1 [Compound 46, (S)-7-((1-benzylpiperidin-4-yl)methyl)-1,3-dioxo-hexahydroimidazo[1,5-a]pyrazin-2(3H)-yl 4-(4-(prop-2-ynyloxy)phenyl)piperazine-1-carboxylate] | 100% @ | 0% @ | 50% @ | 50% @ | 
10 | C#CCOc1ccc(N2CCN(C(=O)ON3C(=O)[C@H]4CN(CC5CCN(Cc6ccccc6)CC5)CCN4C3=O)CC2)cc1 [Compound 47, (R)-7-((1-benzylpiperidin-4-yl)methyl)-1,3-dioxo-hexahydroimidazo[1,5-a]pyrazin-2(3H)-yl 4-(4-(prop-2-ynyloxy)phenyl)piperazine-1-carboxylate] | 100% @ | 0% @ | 0% @ | 0% @ | 

Reference: US9981972B2, “N-hydroxy bicyclic hydantoin carbamates as tools for identification of serine hydrolase targets” (ABIDE THERAPEUTICS, INC., priority 2014, dated 2018)
